Experimental data reported in US20260174875A1 (Novo Nordisk A/S, priority 2023, published 2026).
Numbered stars: 1 amine (or outer) side, 2 acyl side, 3 side chain; on linkers, the order of the positions; unused ones are H or OH. Square brackets hold non-standard residues; d marks the D form. Side chains are listed from the residue outwards. * marks the point of attachment. C18 diacid = O=C(O)CCCCCCCCCCCCCCCCC(=O)*; γGlu = O=C(O)[C@H](CCC(=O)[*:2])N[*:1]; AEEA = NCCOCCOCC(=O)O; Aib = CC(C)(N)C(=O)O

Tests used:
[1] = molecular target: T1, human GLP-1 receptor (hGLP-1R) (Homo sapiens, UniProt P43220); assay: GLP-1 receptor assay, method A (CRE-luciferase reporter, BHK cells); format: cell-based
T1 construct: expressed in transfected cells
Summary of the method: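 Read-out: steadylite Plus luminescence after 30 min shaking at room temperature in the dark. hGLP-1R BHK CRE-Luc cells were stimulated for 3 h at 37° C, 5% CO2. Runs were done in the absence and presence of 1% (w/v) HSA.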

[2] = molecular target: T2, human GIP receptor (hGIPR) (Homo sapiens, UniProt P48546); assay: GIP receptor assay, method A (CRE-luciferase reporter, BHK cells); format: cell-based
T2 construct: expressed in transfected cells
T2 sequence (P48546 22-466): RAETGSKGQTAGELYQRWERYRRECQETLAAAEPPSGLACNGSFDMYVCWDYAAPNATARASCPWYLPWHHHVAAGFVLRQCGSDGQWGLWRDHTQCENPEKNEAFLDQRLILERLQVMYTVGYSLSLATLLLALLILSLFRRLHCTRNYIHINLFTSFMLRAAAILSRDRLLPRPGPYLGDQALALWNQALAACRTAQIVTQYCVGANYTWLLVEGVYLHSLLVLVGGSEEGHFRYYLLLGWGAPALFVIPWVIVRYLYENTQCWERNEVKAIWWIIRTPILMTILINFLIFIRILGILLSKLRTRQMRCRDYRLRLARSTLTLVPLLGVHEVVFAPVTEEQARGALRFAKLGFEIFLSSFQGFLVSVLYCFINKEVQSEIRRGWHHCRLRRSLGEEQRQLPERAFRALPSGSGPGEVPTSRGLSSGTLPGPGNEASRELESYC
Summary of the method: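 Receptor activation was read as luciferase luminescence in hGIPR-expressing BHK CRE-Luc cells after 3 h compound exposure at 37 °C. Titrations (10-fold, 7 points, duplicate) ran in buffer containing 1% ovalbumin, with 1% HSA final or without; EC50 in pM fitted by four-parameter logistic model, Hill slope shared.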

[3] = molecular target: T3, human amylin receptor (hAMYR3) (Homo sapiens, UniProt O60896+P30988); assay: Amylin receptor assay, method A (CRE-luciferase reporter, BHK cells); format: cell-based
T3 construct: host or cells: BHK cells (Hollex-1 line expressing hCTR(a) and CRE-Luc), further transfected with human RAMP3

[4] = Chemical stability assessment in formulation (UPLC-UV-MS purity loss at 37° C.); format: physicochemical; settings: 8 mM phosphate buffer pH 7.4, 1 mg/mL, 2 weeks
Summary of the method: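 Degradation tracked by UPLC-UV-MS (formic acid/acetonitrile gradient) on samples drawn over 2 weeks at 37° C. Solutions were made at a 1 mg/mL target in 8 mM phosphate, pH 7.4, kept in sealed vials and frozen after sampling.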

[5] = molecular target: T1, human GLP-1 receptor (hGLP-1R); assay: GLP-1 receptor assay, method B (CRE-luciferase reporter, BHK cells, 384-well); format: cell-based; settings: hGLP-1R Potency
[6] = molecular target: T2, human GIP receptor (hGIPR); assay: GIP receptor assay, method B (CRE-luciferase reporter, BHK cells, 384-well); format: cell-based; settings: hGIPR Potency
Source text: Activation of the human GIP receptor leads to increased intra-cellular concentrations of cyclic AMP (cAMP) and the consequent transcription activation from promoters containing multiple copies of the cAMP response element (CRE). It is thus possible to measure GIP receptor activity using a CRE-luciferase reporter gene introduced into Baby Hamster Kidney (BHK) cells co-expressing the human GIP receptor.
Cells at about 80-90% confluency were washed once with PBS (Gibco 14190-094) and detached from the cell flasks with Versene (Gibco, 15040-066). After centrifugation, the cells were counted, resuspended and diluted to approximately 1.5-3.0×10^6 (1.5E+6 to 3.0E+6) cells/mL in Recovery Cell Culture Freezing Medium (Gibco, 12648-010) and stored at −180° C. in suitable aliquots until use.
The assay buffer consisted of DMEM without phenol red (Gibco, 11880-028) supplemented with 1× GlutaMAX (Gibco, 35050-038), 10 mM HEPES (Gibco, 15630-056), 1% (w/v) ovalbumin (Sigma, A5503) and 0.1% (v/v) Pluronic F-68 (Gibco, 24040-032) either with HSA or without HSA (Sigma, A9511).
Serial dilutions were transferred to a 384-well assay plate (PerkinElmer/Revvity, 6007688) and mixed with an equal volume (10 μL) of assay buffer without or with 3% HSA (Sigma, A-9511). Frozen stocks of hGIPR BHK Cre-Luc cells were thawed in a 37° C. water bath, washed once in PBS (Gibco 14190-094), diluted to 1.5×10^5 (1.5E+5) cells/mL in assay buffer (without HSA) and added (10 μL) to each well of the 384-well assay plate. After a short centrifugation, the assay plates were incubated for 3 hours at 37° C. in 5% CO2 and let to equilibrated at room temperature for 10 minutes before the addition of 30 μL steadylite Plus™ (PerkinElmer/Revvity, 6066759) per well. Plates were sealed and incubated at room temperature with gentle shaking for 30 minutes while protected from light. Luminescence was detected on a luminescence plate reader e.g. a Synergy 2 (BioTek).

[7] = molecular target: T3, human amylin receptor (hAMYR3); assay: Amylin receptor assay, method B (CRE-luciferase reporter, BHK cells); format: cell-based; settings: hAMYR3 Potency
Procedure: To assess how the activation of the receptors is potentially influenced by the presence of human serum albumin (HSA), the in vitro assays were performed in the absence of HSA and presence of 1% (w/v) HSA.
It is thus possible to measure hAMYR3 activity using a CRE-luciferase reporter gene introduced into Baby Hamster Kidney (BHK) cells co-expressing the hAMYR3.
The cell line was further transfected with human receptor modifying protein 3 (RAMP3) using standard methods.
After centrifugation, the cell pellet was resuspended and diluted to approximately 2.5-4.0×10^6 (2.5E+6 to 4.0E+6) cells/mL in Recovery™ Cell Culture Freezing Medium (Gibco, 12648-010). Cells were aliquoted and stored at −180° C. until use.
The assay buffer consisted of DMEM without phenol red (Gibco, 11880-028) supplemented with 1× GlutaMAX (Gibco, 35050-038), 10 mM HEPES (Gibco, 15630-056) and 1% (w/v) ovalbumin (Sigma, A5503) either with or without 0.1% (v/v) Pluronic F-68 (Gibco, 24040-032) and either with or without HSA (Sigma, A9511).
To perform the assay, hAMYR3 BHK Cre-Luc cells were thawed, washed once in PBS (Gibco 14190-094) and seeded in 40 μL growth medium in a white 384-well culture plate (PerkinElmer/Revvity, 6007688) at a cell density of 4.0×10^3 (4.0E+3) cells/well the day before the experiment. The plate was incubated over night at 37° C. in 5% CO2. […] Serial dilutions were then mixed in a new 96-well plate with equal volume (1:1:1 ratio) of assay buffer and either assay buffer without or with 3% HSA (Sigma, A-9511). Twenty microliters of the solution mix were transferred to the cells which previously were washed once with PBS (Gibco 14190-094). After a short centrifugation, the assay plates were incubated for 3 hours at 37° C. in 5% CO2 and let to equilibrated at room temperature for 10 minutes before the addition of 30 μL steadylite Plus™ PerkinElmer/Revvity, 6066759) per well. Plates were sealed and incubated at room temperature with gentle shaking for 30 minutes while protected from light. Luminescence was detected on a luminescence plate reader e.g., a Synergy 2 (BioTek).

[8] = hGLP-1R Potency, 1% HSA, EC50, method A, in the presence of 1% HSA
[9] = method A, absence of HSA, read-out: hGLP-1R Potency, no HSA, EC50
[10] = hGIPR Potency, 1% HSA, EC50, method A, in the presence of 1% HSA
[11] = method A, absence of HSA, read-out: hGIPR Potency, no HSA, EC50
[12] = hAMYR3 Potency, 1% HSA, EC50, method A, in the presence of 1% HSA
[13] = method A, absence of HSA, read-out: hAMYR3 Potency, no HSA, EC50
[14] = 1% HSA, EC50, methods B, in the presence of 1% HSA
[15] = no HSA, EC50, method B, absence of HSA

T3 sequence (P30988 25-474): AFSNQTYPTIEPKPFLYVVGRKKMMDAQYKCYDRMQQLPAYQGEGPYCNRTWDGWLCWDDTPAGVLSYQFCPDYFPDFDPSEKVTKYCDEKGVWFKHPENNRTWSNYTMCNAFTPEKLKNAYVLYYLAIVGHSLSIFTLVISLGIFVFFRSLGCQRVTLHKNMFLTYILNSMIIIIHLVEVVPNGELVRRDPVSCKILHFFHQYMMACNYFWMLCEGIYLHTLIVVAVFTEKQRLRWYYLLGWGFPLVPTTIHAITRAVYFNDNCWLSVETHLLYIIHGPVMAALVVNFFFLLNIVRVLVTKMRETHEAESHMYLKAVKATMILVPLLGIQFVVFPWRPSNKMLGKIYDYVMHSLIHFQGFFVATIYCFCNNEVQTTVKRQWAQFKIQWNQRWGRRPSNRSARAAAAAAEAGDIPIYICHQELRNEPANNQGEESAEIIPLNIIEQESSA
T3 sequence (O60896 24-148): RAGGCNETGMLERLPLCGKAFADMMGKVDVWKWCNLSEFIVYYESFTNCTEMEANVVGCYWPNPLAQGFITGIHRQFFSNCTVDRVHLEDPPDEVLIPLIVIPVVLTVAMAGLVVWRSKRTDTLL
T1 sequence (P43220 24-463): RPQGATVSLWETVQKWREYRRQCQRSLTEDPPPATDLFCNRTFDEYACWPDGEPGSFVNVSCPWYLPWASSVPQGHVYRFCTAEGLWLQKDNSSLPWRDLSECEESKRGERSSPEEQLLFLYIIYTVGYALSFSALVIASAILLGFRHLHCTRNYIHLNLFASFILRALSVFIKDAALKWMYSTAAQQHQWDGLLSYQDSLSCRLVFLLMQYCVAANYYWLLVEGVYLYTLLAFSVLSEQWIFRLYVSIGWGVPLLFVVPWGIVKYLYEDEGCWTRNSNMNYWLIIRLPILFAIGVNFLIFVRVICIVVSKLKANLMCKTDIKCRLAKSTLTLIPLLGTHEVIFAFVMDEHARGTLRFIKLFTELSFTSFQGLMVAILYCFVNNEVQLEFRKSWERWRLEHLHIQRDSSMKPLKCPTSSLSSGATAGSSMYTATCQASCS

| Compound | EC50 [1, 8] [pM] | EC50 [1, 9] [pM] | EC50 [2, 10] [pM] | EC50 [2, 11] [pM] | EC50 [3, 12] [pM] | EC50 [3, 13] [pM] | Purity loss per week at 37° C. [4] [%] | EC50 [5, 14] [pM] | EC50 [5, 15] [pM] | EC50 [6, 14] [pM] | EC50 [6, 15] [pM] | EC50 [7, 14] [pM] | EC50 [7, 15] [pM] |
| --- | --- | --- | --- | --- | --- | --- | --- | --- | --- | --- | --- | --- | --- |
| H[Aib]HGTFTSDYSILLEEQAAREFIEWLLAGGPSK([AEEA-AEEA-γGlu-C18 diacid])GAGQAPGQAPGASHLSTAQTQRLSAELHELATLPRTETGSGSP-NH2 [Compound 47] | 67.5 | 3.15 | 162 | 2.02 | 55.8 | 2.57 | 2.6 | – | – | – | – | – | – |
| CC[C@H](C)[C@H](NC(=O)[C@H](CCC(=O)O)NC(=O)[C@H](CCC(=O)O)NC(=O)[C@H](CC(C)C)NC(=O)[C@H](CC(C)C)NC(=O)[C@@H](NC(=O)[C@H](CO)NC(=O)[C@H](Cc1ccc(O)cc1)NC(=O)[C@H](CC(=O)O)NC(=O)[C@H](CO)NC(=O)[C@@H](NC(=O)[C@H](Cc1ccccc1)NC(=O)[C@@H](NC(=O)CNC(=O)[C@H](CCC(=O)O)NC(=O)C(C)(C)NC(=O)[C@@H](N)Cc1ccc(O)cc1)[C@@H](C)O)[C@@H](C)O)[C@@H](C)CC)C(=O)N[C@@H](C)C(=O)N[C@@H](C)C(=O)N[C@@H](CCCNC(=N)N)C(=O)N[C@@H](CCC(=O)O)C(=O)N[C@@H](Cc1ccccc1)C(=O)N[C@H](C(=O)N[C@@H](CCC(=O)O)C(=O)N[C@@H](Cc1c[nH]c2ccccc12)C(=O)N[C@@H](CC(C)C)C(=O)N[C@@H](CC(C)C)C(=O)N[C@@H](C)C(=O)NCC(=O)NCC(=O)N1CCC[C@H]1C(=O)N[C@@H](CO)C(=O)N[C@@H](CO)C(=O)NCC(=O)N[C@@H](C)C(=O)NCC(=O)N[C@@H](CCC(=O)O)C(=O)N[C@@H](C)C(=O)N1CCC[C@H]1C(=O)NCC(=O)N[C@@H](CCC(=O)O)C(=O)N[C@@H](C)C(=O)N1CCC[C@H]1C(=O)NCC(=O)N[C@@H](C)C(=O)N[C@@H](CO)C(=O)N[C@@H](Cc1c[nH]cn1)C(=O)N[C@@H](CC(C)C)C(=O)N[C@@H](CO)C(=O)N[C@H](C(=O)N[C@@H](C)C(=O)N[C@@H](CCC(N)=O)C(=O)N[C@H](C(=O)N[C@@H](CCC(N)=O)C(=O)N[C@@H](CCCNC(=N)N)C(=O)N[C@@H](CC(C)C)C(=O)N[C@@H](CO)C(=O)N[C@@H](C)C(=O)N[C@@H](CCC(=O)O)C(=O)N[C@@H](CC(C)C)C(=O)N[C@@H](Cc1c[nH]cn1)C(=O)N[C@@H](CCCCNC(=O)COCCOCCNC(=O)COCCOCCNC(=O)CC[C@H](NC(=O)CCCCCCCCCCCCCCCCCCC(=O)O)C(=O)O)C(=O)N[C@@H](CC(C)C)C(=O)N[C@@H](C)C(=O)N[C@H](C(=O)N[C@@H](CC(C)C)C(=O)N1CCC[C@H]1C(=O)N[C@@H](CCCNC(=N)N)C(=O)N[C@H](C(=O)N[C@@H](CCC(=O)O)C(=O)N[C@H](C(=O)NCC(=O)N[C@@H](CO)C(=O)NCC(=O)N[C@@H](CO)C(=O)N1CCC[C@H]1C(N)=O)[C@@H](C)O)[C@@H](C)O)[C@@H](C)O)[C@@H](C)O)[C@@H](C)O)[C@@H](C)CC [Compound 189] | – | – | – | – | – | – | – | 81.9 | 26.9 | 9.18 | 3.18 | 1210 | 12.7 |
| H[Aib]HGTFTSDYSILLEEQAAREFIEWLLAGGPSK([AEEA-AEEA-γGlu-C18 diacid])GEASQLSTAALGRLSAELHGLATLPRTETGSGSP-NH2 [Compound 65] | 100 | 4.86 | 118 | 1.89 | 127 | 2.84 | 2.1 | – | – | – | – | – | – |

More lines, in order of falling EC50 [1, 8], values ahead:

| EC50 [1, 8] [pM] | EC50 [1, 9] [pM] | EC50 [2, 10] [pM] | EC50 [2, 11] [pM] | EC50 [3, 12] [pM] | EC50 [3, 13] [pM] | Purity loss per week at 37° C. [4] [%] | Compound | EC50 [5, 14] [pM] | EC50 [5, 15] [pM] | EC50 [6, 14] [pM] | EC50 [6, 15] [pM] | EC50 [7, 14] [pM] | EC50 [7, 15] [pM] |
| --- | --- | --- | --- | --- | --- | --- | --- | --- | --- | --- | --- | --- | --- |
| 54.1 | 4.55 | 96.5 | 4.98 | 61.5 | 1.99 | 2.8 | H[Aib]HGTFTSDYSILLEEQAAREFIEWLLAGGPSK([AEEA-AEEA-γGlu-C18 diacid])GEASQLSTAALGRLSAELHRLATLPRTETGSGSP-NH2 [Compound 73] | – | – | – | – | – | – |
| 30.3 | 3.52 | 14.6 | 2.71 | 250 | 4.4 | 2.0 | H[Aib]HGTFTSDYSILLEEQAAREFIEWLLAGGPSSGEASHLSTAQTQRLSAELHK([AEEA-AEEA-γGlu-C18 diacid])LATLPRTETGSGAP-NH2 [Compound 85] | – | – | – | – | – | – |
| 25.9 | 3.31 | 11.6 | 3 | 175 | 4.41 | 2.9 | H[Aib]HGTFTSDYSILLEEQAAREFIEWLLAGGPSSGEASHLSTAQTQRLSAELHRLATLPK([AEEA-AEEA-γGlu-C18 diacid])TETGSGSP-NH2 [Compound 84] | – | – | – | – | – | – |
| 13.4 | 2.55 | 8.53 | 3.12 | 75.1 | 2.64 | 2.8 | H[Aib]HGTFTSDYSILLEEQAAREFIEWLLAGGPSSGAGQAPGQAPGASHLSTAQTQRLSAELHRLATLPK([AEEA-AEEA-γGlu-C18 diacid])TETGSGSP-NH2 [Compound 92] | – | – | – | – | – | – |
| 9.89 | 2.3 | 13.6 | 2.92 | 45.7 | 2.9 | 2.3 | H[Aib]HGTFTSDYSILLEEQAAREFIEWLLAGGPSSGEASHLSTAQTQRLSAELHRLK([AEEA-AEEA-γGlu-C18 diacid])TLPRTETGSGSP-NH2 [Compound 83] | – | – | – | – | – | – |
